Experimental findings from PubChem BioAssay AID256 (DTP/NCI, 2004) are described below.

Values joined by “and” are separate entries in the source; they are usually repeats but may differ in a detail not shown here. Identical values can stand only once. Inconclusive results and toxic doses are left out.

This experiment deals with CD2F1 mice, L1210 leukemia ip, survival T/C. In words: NCI In Vivo Anticancer Drug Screen. Data for tumor model L1210 Leukemia (intraperitoneal) in CD2F1 (CDF1) mice. As to conditions: higher = longer survival. In short, it runs like this: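 Mice carrying a transplanted tumor received test compound or vehicle alone. The value is the measurement in the treated group divided by that in the vehicle-treated control group.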

[1] abbreviates: endpoint: mean survival time, dose: 100.0 mg/kg/injection, schedule: Q04DX003 (ip), vehicle: saline with Tween-80.
The mark [2] stands for this setting: endpoint: mean survival time, dose: 200.0 mg/kg/injection, schedule: Q04DX003 (ip), vehicle: saline with Tween-80.
The mark [3] stands for this setting: endpoint: mean survival time, dose: 100.0 mg/kg/injection, schedule: Q04DX002 (ip), vehicle: saline with Tween-80.

Take `O/N=C\c1ccc(/C=N/O)cc1`: the T/C is 94 % of control under setting [1] and 92 % of control under setting [2].

Regarding `C=CCCCC[P+](c1ccccc1)(c1ccccc1)c1ccccc1`, the T/C (endpoint: mean survival time, dose: 3.0 mg/kg/injection, schedule: Q01DX015 (ip), vehicle: saline) was 97 % of control; the T/C (endpoint: mean survival time, dose: 12.0 mg/kg/injection, schedule: Q01DX015 (ip), vehicle: saline) is 100 % of control; the T/C (endpoint: mean survival time, dose: 24.0 mg/kg/injection, schedule: Q01DX015 (ip), vehicle: saline) was 97 % of control.

In the case of `O=C1C2=C(Nc3cc([N+](=O)[O-])ccc3N2)OC1c1ccccn1` (stereo unspecified), the T/C was 102 % of control (endpoint: median survival time, dose: 25.0 mg/kg/injection, schedule: Q01DX005 (ip), vehicle: Klucel (hydroxypropylcellulose) (HPC)); 108 % of control (endpoint: median survival time, dose: 50.0 mg/kg/injection, schedule: Q01DX005 (ip), vehicle: Klucel (hydroxypropylcellulose) (HPC)); 108 % of control (endpoint: median survival time, dose: 100.0 mg/kg/injection, schedule: Q01DX005 (ip), vehicle: Klucel (hydroxypropylcellulose) (HPC)).

`Cc1ccc2ccccc2[n+]1[O-]`: the T/C under setting [3] is 111 % of control.

On to `Nc1ccc(CSc2ccc(Cl)cc2)cc1`, for which, under “endpoint: mean survival time, dose: 400.0 mg/kg/injection, schedule: Q04DX002 (ip), vehicle: Klucel (hydroxypropylcellulose) (HPC)”, the T/C was 89 % of control.

As for `O[C@H](CN1CC1)[C@@H](O)CN1CC1`, the T/C by setting is: (endpoint: mean survival time, dose: 0.25 mg/kg/injection, schedule: Q01DX007 (ip), vehicle: saline) 150 % of control; (endpoint: mean survival time, dose: 0.25 mg/kg/injection, schedule: Q01DX009 (ip), vehicle: saline) 170 % of control and 177 % of control and 178 % of control; (endpoint: mean survival time, dose: 0.5 mg/kg/injection, schedule: Q01DX007 (ip), vehicle: saline) 192 % of control; (endpoint: mean survival time, dose: 0.5 mg/kg/injection, schedule: Q01DX009 (ip), vehicle: saline) 165 % of control and 197 % of control and 205 % of control; (endpoint: mean survival time, dose: 0.5 mg/kg/injection, schedule: Q03DX003 (ip), vehicle: saline) 166 % of control; (endpoint: mean survival time, dose: 0.5 mg/kg/injection, schedule: Q04DX003 (ip), vehicle: saline) 164 % of control. Further, the T/C (endpoint: mean survival time, dose: 1.0 mg/kg/injection, schedule: Q01DX007 (ip), vehicle: saline) is 94 % of control; the T/C (endpoint: mean survival time, dose: 1.0 mg/kg/injection, schedule: Q01DX009 (ip), vehicle: saline) is 116 % of control and 95 % of control; the T/C (endpoint: mean survival time, dose: 1.0 mg/kg/injection, schedule: Q03DX003 (ip), vehicle: saline) is 202 % of control; the T/C (endpoint: mean survival time, dose: 1.0 mg/kg/injection, schedule: Q04DX003 (ip), vehicle: saline) is 184 % of control.

`NC(=O)c1ccc[n+](CCc2c[nH]c3ccccc23)c1`: the T/C was 101 % of control (endpoint: mean survival time, dose: 18.75 mg/kg/injection, schedule: Q01DX009 (ip), vehicle: saline with Tween-80); 92 % of control (endpoint: mean survival time, dose: 37.5 mg/kg/injection, schedule: Q01DX009 (ip), vehicle: saline with Tween-80); 103 % of control (endpoint: mean survival time, dose: 75.0 mg/kg/injection, schedule: Q01DX009 (ip), vehicle: saline with Tween-80); 88 % of control (endpoint: mean survival time, dose: 75.0 mg/kg/injection, schedule: Q04DX003 (ip), vehicle: saline with Tween-80).

Turning to `O=[N+]([O-])c1ccc(N=Cc2ccc3c(c2)OCO3)cc1`, the T/C (endpoint: mean survival time, dose: 100.0 mg/kg/injection, schedule: Q01DX001 (ip), vehicle: Klucel (hydroxypropylcellulose) (HPC)) is 106 % of control; the T/C (endpoint: mean survival time, dose: 100.0 mg/kg/injection, schedule: Q01DX009 (ip), vehicle: Klucel (hydroxypropylcellulose) (HPC)) was 96 % of control; the T/C (endpoint: mean survival time, dose: 200.0 mg/kg/injection, schedule: Q01DX001 (ip), vehicle: Klucel (hydroxypropylcellulose) (HPC)) was 101 % of control; the T/C (endpoint: mean survival time, dose: 200.0 mg/kg/injection, schedule: Q01DX009 (ip), vehicle: Klucel (hydroxypropylcellulose) (HPC)) is 97 % of control; the T/C (endpoint: mean survival time, dose: 400.0 mg/kg/injection, schedule: Q01DX001 (ip), vehicle: Klucel (hydroxypropylcellulose) (HPC)) was 96 % of control; the T/C (endpoint: mean survival time, dose: 400.0 mg/kg/injection, schedule: Q01DX009 (ip), vehicle: Klucel (hydroxypropylcellulose) (HPC)) is 96 % of control.

As to `CC(=O)Nc1nc(C)c(S(=O)(=O)O)s1`, the T/C is 101 % of control (endpoint: mean survival time, dose: 75.0 mg/kg/injection, schedule: Q01DX001 (ip), vehicle: saline); 93 % of control (endpoint: mean survival time, dose: 150.0 mg/kg/injection, schedule: Q01DX001 (ip), vehicle: saline); 90 % of control (endpoint: mean survival time, dose: 300.0 mg/kg/injection, schedule: Q01DX001 (ip), vehicle: saline).

With `C[NH-].C[NH-].C[NH-].C[NH-].O=C(O)c1cc(C(=O)O)c(C(=O)O)cc1C(=O)O.[Pt+2].[Pt+2]`, the T/C is, setting by setting: (endpoint: mean survival time, dose: 3.12 mg/kg/injection, schedule: Q04DX003 (ip), vehicle: distilled water + Tween-80) 100 % of control; (endpoint: mean survival time, dose: 6.25 mg/kg/injection, schedule: Q04DX003 (ip), vehicle: distilled water + Tween-80) 102 % of control; (endpoint: mean survival time, dose: 12.5 mg/kg/injection, schedule: Q04DX003 (ip), vehicle: distilled water + Tween-80) 103 % of control; (endpoint: mean survival time, dose: 25.0 mg/kg/injection, schedule: Q04DX003 (ip), vehicle: distilled water + Tween-80) 105 % of control; (endpoint: mean survival time, dose: 50.0 mg/kg/injection, schedule: Q04DX003 (ip), vehicle: distilled water + Tween-80) 102 % of control; (endpoint: mean survival time, dose: 100.0 mg/kg/injection, schedule: Q04DX003 (ip), vehicle: distilled water + Tween-80) 103 % of control. In addition, the T/C (endpoint: mean survival time, dose: 200.0 mg/kg/injection, schedule: Q04DX003 (ip), vehicle: distilled water + Tween-80) is 107 % of control.

As to `ClC(Cl)(Cl)C1OCCO1`, the T/C is 95 % of control (endpoint: mean survival time, dose: 100.0 mg/kg/injection, schedule: Q01DX009 (ip), vehicle: saline with Tween-80); 97 % of control under setting [1]; 104 % of control (endpoint: mean survival time, dose: 200.0 mg/kg/injection, schedule: Q01DX009 (ip), vehicle: saline with Tween-80); 102 % of control under setting [2]; 91 % of control (endpoint: mean survival time, dose: 400.0 mg/kg/injection, schedule: Q01DX009 (ip), vehicle: saline with Tween-80); 97 % of control (endpoint: mean survival time, dose: 400.0 mg/kg/injection, schedule: Q04DX003 (ip), vehicle: saline with Tween-80).

As to `COc1ccc2nc3cc(Cl)ccc3c(Nc3cccc(NS(C)(=O)=O)c3)c2n1`, the T/C reads like this: (endpoint: mean survival time, dose: 12.5 mg/kg/injection, schedule: Q01DX009 (ip), vehicle: other) 100 % of control; (endpoint: mean survival time, dose: 25.0 mg/kg/injection, schedule: Q01DX009 (ip), vehicle: other) 93 % of control; (endpoint: mean survival time, dose: 50.0 mg/kg/injection, schedule: Q01DX009 (ip), vehicle: other) 89 % of control; (endpoint: mean survival time, dose: 100.0 mg/kg/injection, schedule: Q01DX009 (ip), vehicle: other) 93 % of control; (endpoint: mean survival time, dose: 200.0 mg/kg/injection, schedule: Q01DX009 (ip), vehicle: other) 93 % of control.

Turning to `O=c1nc(N2CCCCC2)ccn1C1OC(CO)C(O)C1O` (stereo unspecified), the T/C (endpoint: median survival time, dose: 12.5 mg/kg/injection, schedule: Q01DX005 (ip), vehicle: water) is 98 % of control; the T/C (endpoint: median survival time, dose: 25.0 mg/kg/injection, schedule: Q01DX005 (ip), vehicle: water) was 106 % of control; the T/C (endpoint: median survival time, dose: 50.0 mg/kg/injection, schedule: Q01DX005 (ip), vehicle: water) is 106 % of control; the T/C (endpoint: median survival time, dose: 100.0 mg/kg/injection, schedule: Q01DX005 (ip), vehicle: water) is 112 % of control; the T/C (endpoint: median survival time, dose: 200.0 mg/kg/injection, schedule: Q01DX005 (ip), vehicle: water) was 104 % of control.

For `c1ccc(NCc2nc3ccccc3[nH]2)cc1`, the T/C was 101 % of control (endpoint: mean survival time, dose: 12.5 mg/kg/injection, schedule: Q01DX005 (ip), vehicle: water) and 102 % of control (endpoint: mean survival time, dose: 25.0 mg/kg/injection, schedule: Q01DX005 (ip), vehicle: water).

Take `COc1ccc(C2=Nc3cccc4c3N(CCC4)C2c2ccc(OC)cc2)cc1` (stereo unspecified): the T/C (endpoint: mean survival time, dose: 100.0 mg/kg/injection, schedule: Q04DX003 (ip), vehicle: other) is 96 % of control; the T/C (endpoint: mean survival time, dose: 200.0 mg/kg/injection, schedule: Q04DX003 (ip), vehicle: other) was 96 % of control; the T/C (endpoint: mean survival time, dose: 400.0 mg/kg/injection, schedule: Q04DX003 (ip), vehicle: other) was 94 % of control.

On to `O=P(O)(c1cc(Cl)cc(Cl)c1)c1cc(Cl)cc(Cl)c1`, for which the T/C was 100 % of control (endpoint: mean survival time, dose: 18.8 mg/kg/injection, schedule: Q04DX003 (ip), vehicle: saline); 100 % of control (endpoint: mean survival time, dose: 37.5 mg/kg/injection, schedule: Q04DX003 (ip), vehicle: saline); 102 % of control (endpoint: mean survival time, dose: 75.0 mg/kg/injection, schedule: Q04DX003 (ip), vehicle: saline).

Take `O=C(OCC(OC(=O)c1ccccc1)C(OC(=O)c1ccccc1)C(O)C(O)CO)c1ccccc1` (stereo unspecified) (tested in a mixture with another compound): the T/C was 114 % of control under setting [3] and 100 % of control (endpoint: mean survival time, dose: 200.0 mg/kg/injection, schedule: Q04DX002 (ip), vehicle: saline with Tween-80).
